For this assay, the target named is T1, Recombinant human GR (Homo sapiens, UniProt P04150).
T1 construct: purchased Invitrogen P2816
T1 sequence (P04150 1-777): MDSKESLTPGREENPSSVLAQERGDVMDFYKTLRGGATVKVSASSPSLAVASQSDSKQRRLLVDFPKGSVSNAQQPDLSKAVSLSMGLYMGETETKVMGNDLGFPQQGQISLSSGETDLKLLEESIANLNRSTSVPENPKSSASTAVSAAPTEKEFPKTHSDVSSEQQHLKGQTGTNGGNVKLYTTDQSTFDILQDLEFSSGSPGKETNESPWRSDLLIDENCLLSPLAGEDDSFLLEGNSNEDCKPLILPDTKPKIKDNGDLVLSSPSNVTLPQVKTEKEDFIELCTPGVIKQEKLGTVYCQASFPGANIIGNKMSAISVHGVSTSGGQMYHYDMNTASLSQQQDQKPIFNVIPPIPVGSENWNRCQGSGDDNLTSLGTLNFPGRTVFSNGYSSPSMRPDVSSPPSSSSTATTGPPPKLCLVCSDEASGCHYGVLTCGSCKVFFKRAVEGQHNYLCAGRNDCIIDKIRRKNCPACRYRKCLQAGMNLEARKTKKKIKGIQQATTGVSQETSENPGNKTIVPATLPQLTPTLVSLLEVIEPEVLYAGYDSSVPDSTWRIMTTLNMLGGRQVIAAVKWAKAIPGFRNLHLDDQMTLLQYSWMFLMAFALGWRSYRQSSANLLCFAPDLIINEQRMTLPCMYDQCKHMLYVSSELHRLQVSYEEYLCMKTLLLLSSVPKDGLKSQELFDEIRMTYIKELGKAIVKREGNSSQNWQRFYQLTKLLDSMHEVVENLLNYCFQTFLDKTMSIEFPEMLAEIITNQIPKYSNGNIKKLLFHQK
In words: GR competitor assay by fluorescence polarization (binding activity to glucocorticoid receptor). Particulars: 20 μM test compound solution, 25 μL per well plus 12.5 μL each of 4×GS1 and 4×GR solution; Fluormone GS1 ligand; positive control 2 mM dexamethasone; read-out: GR Binding ratio (%). As for the experimental part: 1. Evaluation Test for Binding Activity to Glucocorticoid Receptor (Hereinafter Referred to as “GR”)
In order to evaluate a binding activity to GR, a receptor competitor assay was carried out by a fluorescence polarization method. In the assay, a GR competitor assay kit (manufactured by Invitrogen, cat No. P2816) was used, and a procedure was carried out according to the protocol attached to the kit. Hereinafter, the specific method will be described.
GR screening buffer: A buffer containing 10 mM potassium phosphate (pH 7.4), 20 mM sodium molybdate (Na2MoO4), 0.1 mM ethylene diamine tetraacetic acid (EDTA), 5 mM dithiothreitol (DTT), 0.1 mM stabilizing peptide and 2% dimethylsulfoxide was prepared.
4×GS1 solution: Fluormone™ GS1, which is a fluorescent glucocorticoid ligand, was diluted with GR screening buffer, whereby a 4 nM solution was prepared.
4×GR solution: Recombinant human GR was diluted with GR screening buffer, whereby a 16 nM solution was prepared.
After a test compound was dissolved in dimethylsulfoxide, the resulting solution was diluted with GR screening buffer, whereby a 20 μM test compound solution was prepared.
1) The test compound solution was added in an amount of 25 μL into each well of a 96-well plate, and then, 4×GS1 solution and 4×GR solution were added in an amount of 12.5 μL into each well, respectively.
2) The plate was incubated in a dark place at room temperature for 2 to 4 hours.
3) By using a multimode plate reader, Analyst™ HT (manufactured by LJL Biosystems), fluorescence polarization of each well was measured. As the blank, a well containing GR screening buffer in place of the test compound and 4×GS1 solution was used.
4) The same procedure as that in the above 1) to 3) was carried out except that GR screening buffer was used in place of the test compound solution, and the obtained result was taken as the negative control.
5) The same procedure as that in the above 1) to 3) was carried out except that 2 mM dexamethasone was used in place of the test compound solution, and the obtained result was taken as the positive control.
A GR binding ratio (%) was calculated from the following equation.
GR binding ratio (%)=100×[1-(fluorescence polarization of test compound solution-fluorescence polarization of positive control solution)/(fluorescence polarization of negative control solution—fluorescence polarization of positive control solution)]

Take `COc1ccc(C(=O)OCc2c(-c3ccc(OC(=O)c4ccccc4C)cc3OC)ccc3c2NC(=O)C(C)(C)N3)cc1` [Compound 1-4, 7-[2-Methoxy-4-(2-methylbenzoyloxy)phenyl]-8-(4-methoxybenzoyloxymethyl)-3,3-dimethyl-3,4-dihydro-1H-quinoxalin-2-one]: the inhibition at 10 µM worked out at 91%. As for `COc1ccc(F)cc1-c1ccc2c(c1COC(=O)c1ccc(C)cc1)NC(=O)C(C)(C)N2` [Compound 2-2], the inhibition at 10 µM worked out at 99%. In the case of `COc1cc(F)ccc1-c1ccc2c(c1COC(=O)c1ccc(C)s1)N(C)C(=O)C(C)(C)N2` [Compound 2-9], the inhibition at 10 µM came out at 99%. To `COc1cc(F)ccc1-c1ccc2c(c1COC(=O)c1ccc(Br)s1)N(C)C(=O)C(C)(C)N2` [Compound 2-16] belongs 100%. To `COc1cc(F)ccc1-c1ccc2c(c1COc1cc([N+](=O)[O-])ccc1C)N(C)C(=O)C(C)(C)N2` [Compound 3-7] belongs 100%; to `COc1ccc(Cl)cc1-c1ccc2c(c1COc1ccccc1CCO)N(C)C(=O)C(C)(C)N2` [Compound 3-10], 100%. As for `COc1cc(F)ccc1-c1ccc2c(c1COc1cc(Cl)ccc1C)N(C)C(=O)C(C)(C)N2` [Compound 3-15], the inhibition at 10 µM was found to be 100%. As for `COc1ccc([N+](=O)[O-])cc1OCc1c(-c2ccc(F)cc2OC)ccc2c1N(C)C(=O)C(C)(C)N2` [Compound 3-16], the inhibition at 10 µM stood at 100%. As to `C=CCc1ccccc1OCc1c(-c2ccc(F)cc2OC)ccc2c1N(C)C(=O)C(C)(C)N2` [Compound 3-17], the inhibition at 10 µM is 100%. To `COc1ccc(C)cc1NCc1c(-c2ccc(F)cc2OC)ccc2c1N(C)C(=O)C(C)(C)N2` [Compound 4-5] belongs 100%.

Take `COc1ccc(Cl)cc1-c1ccc2c(c1CNc1cc(F)ccc1C)N(C)C(=O)C(C)(C)N2` [Compound 4-7]: the inhibition at 10 µM was 100%. For the molecule `COc1ccc(Cl)cc1-c1ccc2c(c1CNc1ccccc1C(C)C)N(C)C(=O)C(C)(C)N2` [Compound 4-10], the inhibition at 10 µM stood at 100%. `COc1ccccc1NCc1c(-c2ccc(F)cc2OC)ccc2c1N(C)C(=O)C(C)(C)N2` [Compound 4-11]: the inhibition at 10 µM turned out to be 100%. With `COc1ccc(F)cc1-c1ccc2c(c1COC(=O)c1ccccc1)N(C)C(=O)C(C)(C)N2` [Compound 5-1, 8-Benzoyloxymethyl7-(5-fluoro-2-methoxyphenyl)-1,3,3-trimethyl-3,4-dihydro-1H-quinoxalin-2-one], the inhibition at 10 µM amounted to 100%. For `COc1ccc(F)cc1-c1ccc2c(c1COc1ccccc1)N(C)C(=O)C(C)(C)N2` [Compound 5-9], the inhibition at 10 µM stood at 100%. In the case of `COc1ccc(F)cc1-c1ccc2c(c1CNc1ccccc1)N(C)C(=O)C(C)(C)N2` [Compound 5-14], the inhibition at 10 µM amounted to 100%. For the molecule `CCN1C(=O)C(C)(C)Nc2ccc(-c3cc(F)ccc3OC)c(COC(=O)c3ccc(C)cc3)c21` [Compound 5-18], the inhibition at 10 µM was 100%. Under `C=CCN1C(=O)C(C)(C)Nc2ccc(-c3cc(F)ccc3OC)c(COC(=O)c3ccc(C)cc3)c21` [Compound 5-19] stands 100%. Take `COc1ccc(C(=O)OCc2c(-c3ccc(OC(=O)c4ccccc4C)cc3OC)ccc3c2N(C)C(=O)C(C)(C)N3)cc1` [Compound 5-21]: the inhibition at 10 µM turned out to be 100%. With `COc1ccc([N+](=O)[O-])cc1OCc1c(-c2ccc(OC(=O)c3ccccc3C)cc2OC)ccc2c1N(C)C(=O)C(C)(C)N2` [Compound 5-22], the inhibition at 10 µM amounted to 99%. `COc1cc(OC(=O)c2ccccc2C)ccc1-c1ccc2c(c1COC(=O)c1cccc(F)c1)N(C)C(=O)C(C)(C)N2` [Compound 5-24]: the inhibition at 10 µM was determined as 100%. For `Cc1ccc(F)cc1OCc1c(-c2ccccc2Cl)ccc2c1N(C)C(=O)C(C)(C)N2` [Compound 6-4], the inhibition at 10 µM turned out to be 98%. With `COc1ccccc1-c1ccc2c(c1COc1cc(F)ccc1C)N(C)C(=O)C(C)(C)N2` [Compound 6-8], the inhibition at 10 µM came to 98%. As to `CSc1ccccc1-c1ccc2c(c1COc1cc(F)ccc1C)N(C)C(=O)C(C)(C)N2` [Compound 6-10], the inhibition at 10 µM amounted to 100%.

As for `COc1cc(F)ccc1-c1ccc2c(c1COc1cc(F)ccc1C)N(C)C(=O)C(C)(C)N2` [Compound 6-12], the inhibition at 10 µM is 100%. In the case of `COc1ccc(Cl)cc1-c1ccc2c(c1COc1cc(F)ccc1C)N(C)C(=O)C(C)(C)N2` [Compound 6-15], the inhibition at 10 µM is 100%. Consider `COc1ccc(C(F)(F)F)cc1-c1ccc2c(c1COc1cc(F)ccc1C)N(C)C(=O)C(C)(C)N2` [Compound 6-19], for which the inhibition at 10 µM was 100%. As for `COc1cccc(F)c1-c1ccc2c(c1COc1cc(F)ccc1C)N(C)C(=O)C(C)(C)N2` [Compound 6-23], the inhibition at 10 µM was 98%. Consider `COc1ccc([N+](=O)[O-])cc1-c1ccc2c(c1COc1cc(F)ccc1C)N(C)C(=O)C(C)(C)N2` [Compound 6-27, 8-(5-fluoro-2-methylphenoxymethyl)-7-(2-methoxy-5-nitrophenyl)-1,3,3-trimethyl-3,4-dihydro-1H-quinoxalin-2-one], for which the inhibition at 10 µM is 100%. To `COc1ccc(OC(=O)c2ccccc2)cc1-c1ccc2c(c1COc1cc(F)ccc1C)N(C)C(=O)C(C)(C)N2` [Compound 6-32] belongs 89%; to `COc1ccc(C(F)(F)F)cc1-c1ccc2c3c1CN(c1ccccc1OC)CN3C(=O)C(C)(C)N2` [Compound 6-38], 100%. Under `COc1cc(N)ccc1-c1ccc2c(c1COc1cc(F)ccc1C)N(C)C(=O)C(C)(C)N2` [Compound 8-2] stands 100%; under `COc1ccc(CO)cc1-c1ccc2c(c1COc1cc(F)ccc1C)N(C)C(=O)C(C)(C)N2` [Compound 9-1, 8-(5-Fluoro-2-methylphenoxymethyl)-7-(5-hydroxymethyl-2-methoxyphenyl)-1,3,3-trimethyl-3,4-dihydro-1H-quinoxalin-2-one], 100%. For the molecule `COc1cc(O)ccc1-c1ccc2c(c1COc1cc(F)ccc1C)N(C)C(=O)C(C)(C)N2` [Compound 11, 8-(5-fluoro-2-methylphenoxymethyl)-7-(4-hydroxy-2-methoxyphenyl)-1,3,3-trimethyl-3,4-dihydro-1H-quinoxalin-2-one], the inhibition at 10 µM worked out at 100%.

With `COc1cc(O)ccc1-c1ccc2c(c1COC(=O)c1ccc(C)s1)N(C)C(=O)C(C)(C)N2` [Compound 13-2, 7-(4-Hydroxy-2-methoxyphenyl)-8-(5-methylthiophen-2-ylcarbonyloxymethyl)-1,3,3-trimethyl-3,4-dihydro-1H-quinoxalin-2-one], the inhibition at 10 µM stood at 91%. On to `COc1cc(OC(=O)c2ccccc2C)ccc1-c1ccc2c(c1COc1cc(F)ccc1C)N(C)C(=O)C(C)(C)N2` [Compound 14-2], for which the inhibition at 10 µM amounted to 100%. For the molecule `COc1cc(OC(=O)c2ccccc2Cl)ccc1-c1ccc2c(c1COc1cc(F)ccc1C)N(C)C(=O)C(C)(C)N2` [Compound 14-4], the inhibition at 10 µM stood at 100%. For `COc1cc(OC(=O)c2ccoc2)ccc1-c1ccc2c(c1COc1cc(F)ccc1C)N(C)C(=O)C(C)(C)N2` [Compound 14-11], the inhibition at 10 µM was 100%.

The values are drawn from patent US8551991B2, “1,2,3,4-tetrahydroquinoxaline derivative having glucocorticoid receptor binding activity” (Santen Pharmaceutical Co., Ltd., priority 2006, dated 2013).
